Source: US11273172B2, “Synergistic combination of oligonucleotides and chemotherapeutic for treating cancer” (THE BOARD OF TRUSTEES OF THE UNIVERSITY OF ILLINOIS, priority 2017, dated 2022)
Where “and” joins values, the source holds several entries; their conditions need not be identical. Equal entries are not always repeated.

Legend:
Test in all cases: MTT cell death assay, chemotherapeutic with and without MADD siRNA knockdown
[1] = test system: C643 thyroid cancer cells; format: cell-based, human; conditions: Sorafinib 0.975 μM, siRNA 10 nM, 48 hours post Sorafinib treatment
Experimental: (§1) Cells are cultured and maintained at 37° C. in a humidified atmosphere containing 5% CO2 as described above. On Day 0, Cells are seeded in […] tissue culture dishes (Corning; Cat Number: 353003) to attain 60-70% confluence. In parallel, cells are also seeded in one 96-well plate (Corning; Cat number: 353072) for analysis of survival before reseeding. After 12-18 hours (Day 1), cells are transfected with Scramble or MADD siRNA at 10 nM concentration. The sequences of siRNAs (double-stranded) used are:
(§2) On Day 4, when cells are properly adhered and retained their shape in 96-well plates, drugs are added. All drugs are diluted in complete media on the same day prior to the addition to the cells. In untreated cells, media is replaced with complete media. Two hundred μl volume of media (with or without drugs) is used for the drug treatment assay. Plates are incubated 24 hours, 48 hours and 72 hours at 37° C. in humidified CO2 incubator.
(§3) An MTT assay is performed to determine relative survival after drug treatment as described above. MTT (3-[4,5-Dimethylthiazol-2-yl]-2,5-diphenyltetrazolium bromide; Thiazolyl blue) is purchased from Sigma Aldrich (Cat number: M5655). MTT is dissolved in sterile DPBS at the concentration of 5 mg/ml and filtered through 0.45 μM syringe filter (Corning; Cat number: 431220). Ten μl of MTT solution is added per well of 96-well plate. Plates are incubated for 2 hours at 37° C. in the humidified CO2 incubator. After 2 hours, media is aspirated using vacuum inside the biosafety hood. Purple colored crystals formed in viable cells are dissolved by adding 100 μl of Dimethyl sulfoxide (Thermo Fisher Scientific; Cat number D128-500) Plates are kept on shaker for 10 minutes for compete dissolution of crystals and absorbance is recorded at 595 nm using Bio-Rad iMark microplate reader. Data is analyzed in MICROSOFT EXCEL® software. Relative survival is calculated with respect to absorbance of control (untreated cells) to determine the effect of transfection as well as combination treatment.
(§4) Each data set takes into account any spontaneous cell death which is observed upon transfection with Scramble siRNA; the amount of spontaneous cell death from Scramble siRNA transfection (baseline) is subtracted from the amount of cell death observed in each siRNA transfection reaction to yield a Net Percent (Net %) cell death after accounting for Scrambled siRNA-induced cell death.

[2] = test system: K562 chronic myelogenous leukemia cells; format: cell-based; conditions: siRNA 10 nM
Experimental: as §1, §2, §3, §4
as §1, with “(double stranded)” for “(double-stranded)”
as §2, with “added. Doxorubicin was added at a working concentration of 5.0 nM, 9.375 nM, 0.075 μM, 0.25 μM, 0.5 μM, and 0.8 μM.” for “added.”
(§5) An MTT assay is performed to determine relative survival after drug treatment as described above. MTT (3-[4,5-Dimethylthiazol-2-yl]-2,5-diphenyltetrazolium bromide; Thiazolyl blue) is purchased from Sigma Aldrich (Cat number: M5655). MTT is dissolved in sterile DPBS at the concentration of 5 mg/ml and filtered through […] syringe filter (Corning; Cat number: 431220). Ten μl of MTT solution is added per well of 96-well plate. Plates are incubated for 2 hours at 37° C. in the humidified CO2 incubator. […]

[3] = test system: H2227 lung cancer cells; format: cell-based; conditions: siRNA 10 nM
Experimental: as §1, §2, §3, §4
as §1, with “(double stranded)” for “(double-stranded)”
as §2, with “added. Doxorubicin was added at a working concentration of 5.0 nM, 9.375 nM, 0.075 μM, 0.25 μM, 0.5 μM, and 0.8 μM.” for “added.”
as §5

[4] = test system: SU.86.86 pancreatic cancer cells; format: cell-based; conditions: siRNA 10 nM
Experimental: as §1, §2, §3, §4
as §1, with “(double stranded)” for “(double-stranded)”
as §2, with “added. Doxorubicin was added at a working concentration of 5.0 nM, 9.375 nM, 0.075 μM, 0.25 μM, 0.5 μM, and 0.8 μM.” for “added.”
as §5

[5] = test system: 8505C thyroid cancer cells; format: cell-based; conditions: siRNA 10 nM
Experimental: Cells are cultured and maintained at 37° C. in a humidified atmosphere containing 5% CO2 as described above. […] After 12-18 hours (Day 1), cells are transfected with Scramble or MADD siRNA at 10 nM concentration. The sequences of siRNAs (double stranded) used are:
as §2, with “24 h,” for “24 hours,”, “48 h” for “48 hours”
as §3, with “MTT is dissolved in sterile DPBS at the concentration of 5 mg/ml and filtered through 0.45 μM syringe filter (Corning; Cat number: 431220).” left out
as §4, §2

[6] = Sorafinib 0.3125 μM, 72 hours post Sorafinib treatment
[7] = Sorafinib 1.25 μM, 48 hours post Sorafinib treatment
[8] = Sorafinib 3 μM, 48 hours post Sorafinib treatment
[9] = Sorafinib 1.25 μM, 72 hours post-Sorafinib treatment
[10] = Sorafinib 5 μM, 24 hours post Sorafinib treatment
[11] = 8505C thyroid cancer cells, TRAIL 6.25 ng/ml, 48 hours post TRAIL treatment
[12] = 8505C, Cisplatin 2.5 μM, 48 hours post Cisplatin treatment
[13] = 8508C thyroid cancer cells, TRAIL 6.25 ng/ml, 48 hours post TRAIL treatment
[14] = Doxorubicin 0.25 μM, 72 hours post Doxorubicin treatment
[15] = Doxorubicin 0.5 μM, 48 hours post Doxorubicin treatment
[16] = TRAIL 6.25 ng/ml, 72 hours post TRAIL treatment
[17] = TRAIL 12.5 ng/ml, 48 hours post TRAIL treatment
[18] = Doxorubicin 9.375 nM, 48 hours post Doxorubicin treatment
[19] = Gemcitabine 25 nM, 48 hours post Gemcitabine treatment
[20] = Doxorubicin 5 nM, 24 hours post Doxorubicin treatment

Molecule | Net % cell death after accounting for Scrambled siRNA [1] | Observed % Cell death [1] [%] | Net % cell death after accounting for Scrambled siRNA [2, 6] | Observed % Cell death [2, 6] [%] | Net % cell death after accounting for Scrambled siRNA [2, 7] | Observed % Cell death [2, 7] [%] | Net % cell death after accounting for Scrambled siRNA [3, 8] | Observed % Cell death [3, 8] [%] | Net % cell death after accounting for Scrambled siRNA [4, 9] | Observed % Cell death [4, 9] [%] | Net % cell death after accounting for Scrambled siRNA [4, 10] | Observed % Cell death [4, 10] [%] | Net % cell death after accounting for Scrambled siRNA [5, 11] | Net % cell death after accounting for Scrambled siRNA [5, 12] | Observed % Cell death [5, 12] [%] | Observed % Cell death [5, 13] [%] | Net % cell death after accounting for Scrambled siRNA [2, 14] | Net % cell death after accounting for Scrambled siRNA [2, 16] | Observed % Cell death [2, 16] [%] | Observed % Cell death [2, 17] [%] | further results
CNC(=O)c1cc(Oc2ccc(NC(=O)Nc3ccc(Cl)c(C(F)(F)F)c3)cc2)ccn1 [Sorafinib] | 3% | 3 | 0% | 0 | 0% | 0 | 18% | 18 | 0% | 0 | 17% | 17 |  |  |  |  |  |  |  |  | 
MADD siRNA: siRNA targeting exon 13L of the MADD splice variant of the IG20 gene; SEQ ID NO: 4, 5′-GAUUGUCAUAGAUUCGCCGTT-3′ (chemistry not given here) | 13% and 14 − 1 = 13% | 14 | 47% and 59 − 12 = 47% | 59 |  | 53 |  | 35 |  | 41 | 0% and 9 − 11 = 0% | 9 | 39% and 49 − 10 = 39% | 39% and 49 − 10 = 39% | 49 | 49 | 47% and 59 − 12 = 47% | 47% and 59 − 12 = 47% | 59 | 53 | Observed % Cell death [2, 14]: 59%; Observed % Cell death [2, 15]: 53%; Observed % Cell death [3, 18]: 35%; Observed % Cell death [3, 19]: 35%; Net % cell death after accounting for Scrambled siRNA [4, 20]: 0% and 9 − 11 = 0%; Observed % Cell death [4, 20]: 9%
Scrambled siRNA: non-specific Scramble siRNA, negative control; SEQ ID NO: 5, 5′-UUGCUAAGCGUCGGUCAAUTT-3′ (chemistry not given here) | 1 − 1 = 0% | 1 | 12 − 12 = 0% | 12 | 49 − 49 = 0% | 49 | 28 − 28 = 0% | 28 | 28 − 28 = 0% | 28 | 11 − 11 = 0% | 11 | 10 − 10 = 0% | 10% | 10 | 10 | 12 − 12 = 0% | 12 − 12 = 0% | 12 | 49 | Observed % Cell death [2, 14]: 12%; Net % cell death after accounting for Scrambled siRNA [2, 15]: 49 − 49 = 0%; Observed % Cell death [2, 15]: 49%; Net % cell death after accounting for Scrambled siRNA [2, 17]: 49 − 49 = 0%; Net % cell death after accounting for Scrambled siRNA [3, 18]: 28 − 28 = 0%; Observed % Cell death [3, 18]: 28%; Net % cell death after accounting for Scrambled siRNA [3, 19]: 28 − 28 = 0%; Observed % Cell death [3, 19]: 28%; Net % cell death after accounting for Scrambled siRNA [4, 20]: 11 − 11 = 0%; Observed % Cell death [4, 20]: 11%
TRAIL: cytotoxic protein which induces apoptosis in tumor cells, but not in normal cells (protein, UniProt P50591 1-281, looked up) Tumor necrosis factor ligand …: MAMMEVQGGPSLGQTCVLIVIFTVLLQSLCVAVTYVYFTNELKQMQDKYSKSGIACFLKEDDSYWDPNDEESMNSPCWQVKWQLRQLVRKMILRTSEETISTVQEKQQNISPLVRERGPQRVAAHITGTRGRSNTLSSPNSKNEKALGRKINSWESSRSGHSFLSNLHLRNGELVIHEKGFYYIYSQTYFRFQEEIKENTKNDKQMVQYIYKYTSYPDPILLMKSARNSCWSKDAEYGLYSIYQGGIFELKENDRIFVSVTNEHLIDMDHEASFFGAFLVG |  |  |  |  |  |  |  |  |  |  |  |  | 6.56% and 7% |  |  | 7 |  | 0% | 0 | 0 | Net % cell death after accounting for Scrambled siRNA [2, 17]: 0%
